Measured values published in PMC4583814 (Nature neuroscience, 2015).

What was measured:
Test in all cases: CRE-luciferase
Type in all cases: cell-based
Olfr57 = target: T1, Olfr57 (Mus musculus, UniProt Q8VGU7); conditions: Hana3A cells, 4 h, 37°C; agonist
T1 sequence (Q8VGU7 1-319): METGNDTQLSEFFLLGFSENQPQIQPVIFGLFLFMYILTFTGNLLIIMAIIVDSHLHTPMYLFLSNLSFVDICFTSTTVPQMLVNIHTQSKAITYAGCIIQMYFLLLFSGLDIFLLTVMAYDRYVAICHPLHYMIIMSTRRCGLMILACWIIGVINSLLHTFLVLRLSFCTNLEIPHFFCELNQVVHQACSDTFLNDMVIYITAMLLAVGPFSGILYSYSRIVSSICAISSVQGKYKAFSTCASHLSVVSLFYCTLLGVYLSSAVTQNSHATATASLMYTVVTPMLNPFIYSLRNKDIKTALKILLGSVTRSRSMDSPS

Olfr376 = target: T2, Olfr376 (Mus musculus, UniProt Q8VGI2); conditions: Hana3A cells, 4 h, 37°C; agonist
T2 sequence (Q8VGI2 1-317): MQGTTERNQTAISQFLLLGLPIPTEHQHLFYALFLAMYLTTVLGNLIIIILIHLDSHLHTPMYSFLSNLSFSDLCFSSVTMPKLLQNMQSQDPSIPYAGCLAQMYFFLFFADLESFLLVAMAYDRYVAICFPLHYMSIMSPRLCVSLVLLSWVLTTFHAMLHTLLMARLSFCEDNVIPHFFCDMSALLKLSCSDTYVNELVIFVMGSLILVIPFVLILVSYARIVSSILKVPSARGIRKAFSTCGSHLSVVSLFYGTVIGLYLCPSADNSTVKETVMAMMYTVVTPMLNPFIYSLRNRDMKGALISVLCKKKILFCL

Olfr20 = target: T3, Olfr20 (Mus musculus, UniProt Q7TRX9); conditions: Hana3A cells, 4 h, 37°C; agonist
T3 sequence (Q7TRX9 1-314): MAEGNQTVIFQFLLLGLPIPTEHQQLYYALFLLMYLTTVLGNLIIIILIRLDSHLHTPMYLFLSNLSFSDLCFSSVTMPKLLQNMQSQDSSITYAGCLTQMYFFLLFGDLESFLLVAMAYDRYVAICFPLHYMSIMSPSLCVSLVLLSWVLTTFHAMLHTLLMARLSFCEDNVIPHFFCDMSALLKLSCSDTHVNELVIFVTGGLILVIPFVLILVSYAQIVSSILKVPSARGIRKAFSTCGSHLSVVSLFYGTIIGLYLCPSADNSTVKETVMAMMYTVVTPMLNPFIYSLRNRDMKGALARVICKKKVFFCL

Olfr491 = target: T4, Olfr491 (Mus musculus, UniProt Q8VG06); conditions: Hana3A cells, 4 h, 37°C; agonist
T4 sequence (Q8VG06 1-310): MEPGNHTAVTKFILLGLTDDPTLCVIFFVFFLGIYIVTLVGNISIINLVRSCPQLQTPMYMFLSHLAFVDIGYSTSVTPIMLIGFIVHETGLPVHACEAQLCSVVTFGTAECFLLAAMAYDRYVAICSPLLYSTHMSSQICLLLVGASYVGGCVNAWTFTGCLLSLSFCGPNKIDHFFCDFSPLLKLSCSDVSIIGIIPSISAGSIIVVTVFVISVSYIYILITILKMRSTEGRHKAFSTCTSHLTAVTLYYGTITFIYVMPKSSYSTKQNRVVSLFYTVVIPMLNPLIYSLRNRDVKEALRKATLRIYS

Olfr19 = target: T5, Olfr19 (Mus musculus, UniProt Q9JHB2); conditions: Hana3A cells, 10^–9 – 10^–3 M, 4 h, 37°C; agonist
T5 sequence (Q9JHB2 1-309): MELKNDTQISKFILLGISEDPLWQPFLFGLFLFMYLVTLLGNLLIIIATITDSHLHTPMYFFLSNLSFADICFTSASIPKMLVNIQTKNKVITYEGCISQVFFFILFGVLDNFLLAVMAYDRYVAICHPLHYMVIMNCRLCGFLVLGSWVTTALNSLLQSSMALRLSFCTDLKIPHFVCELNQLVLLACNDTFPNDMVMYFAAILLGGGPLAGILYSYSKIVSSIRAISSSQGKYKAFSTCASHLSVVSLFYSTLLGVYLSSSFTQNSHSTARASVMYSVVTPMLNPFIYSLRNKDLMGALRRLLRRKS

Compound	CRE-luciferase (Dual-Glo) reporter (Olfr57)	CRE-luciferase (Dual-Glo) reporter (Olfr376)	CRE-luciferase (Dual-Glo) reporter (Olfr20)	CRE-luciferase (Dual-Glo) reporter (Olfr491)	EC50 (Olfr19)
CC1=NC(C)SC1C (centres unmarked) [2,5–dihydro–2,4,5–trimethylthiazoline]	Five of these TMT ORs (Olfr20, Olfr30, Olfr57, Olfr376, Olfr491)	Five of these TMT ORs (Olfr20, Olfr30, Olfr57, Olfr376, Olfr491)	Five of these TMT ORs (Olfr20, Olfr30, Olfr57, Olfr376, Olfr491)	Five of these TMT ORs (Olfr20, Olfr30, Olfr57, Olfr376, Olfr491)	
CC(=O)c1ccccc1 [acetophenone]					a newly identified acetophenone OR, Olfr19
